Where “and” joins values, the source holds several entries; their conditions need not be identical. Equal values may be shown once. One block for each molecule: values may come before it.
Assays:
Assay type in all cases: biochemical
[1] = biological target: T1, hALDH2 (recombinant human mitochondria ALDH) (Homo sapiens, UniProt P05091); experiment: ALDH2 inhibition assay; settings: for hALDH2 inhibition at 1 μM: printed in the IC50 hALDH2 column
T1 sequence (P05091 18-517): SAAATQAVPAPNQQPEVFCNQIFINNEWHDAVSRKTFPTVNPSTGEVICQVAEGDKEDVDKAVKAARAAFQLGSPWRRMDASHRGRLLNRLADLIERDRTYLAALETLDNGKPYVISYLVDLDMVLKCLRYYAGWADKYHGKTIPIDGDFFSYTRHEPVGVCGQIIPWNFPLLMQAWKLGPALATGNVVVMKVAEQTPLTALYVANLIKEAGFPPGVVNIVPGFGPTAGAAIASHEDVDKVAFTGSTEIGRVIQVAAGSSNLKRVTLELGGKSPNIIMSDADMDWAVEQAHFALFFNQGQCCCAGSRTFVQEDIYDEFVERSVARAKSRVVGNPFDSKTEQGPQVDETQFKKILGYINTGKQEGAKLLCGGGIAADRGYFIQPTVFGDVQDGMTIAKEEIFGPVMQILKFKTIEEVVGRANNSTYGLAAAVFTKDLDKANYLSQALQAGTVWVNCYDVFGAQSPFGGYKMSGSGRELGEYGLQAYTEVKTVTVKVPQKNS
Procedure: ALDH2 inhibition assays were performed in sodium phosphate buffer (50 mM, pH 7.4) containing 1.2 mM NAD^+ (Sigma N7004), 1 nM hALDH2 (recombinant human mitochondria ALDH), various concentrations of test compounds (from 0.03 nM to […]), and 0.15 mM freshly prepared formaldehyde solution (Ladd Research 20295). Reactions were initiated by the addition of formaldehyde and rates were recorded by monitoring NADH formation in a temperature controlled (25° C.) FluoroMax-2 Fluorimeter with excitation and emission wavelengths set at 340 and 460 nm, respectively. […] Normally, IC50 values were determined by fitting concentration-inhibition data to sigmoidal dose-response curves with two-floating parameters: IC50 and Hill coefficient. When tight binding situation was suspected, apparent Ki values were estimated by fitting dose-response data to Morrison's equation [Methods in Enzymology 63, 437-467, 1979].

hMAO-B = biological target: T2, hMAO-B (Homo sapiens, UniProt P27338); experiment: MAO-B inhibition assay; settings: No = no inhibition; for inhibition at 10 µM / hMAO-B inhibition at 10 μM: printed in the IC50 hMAO-B column
T2 construct: purchased Sigma M7441
T2 sequence (P27338 1-520): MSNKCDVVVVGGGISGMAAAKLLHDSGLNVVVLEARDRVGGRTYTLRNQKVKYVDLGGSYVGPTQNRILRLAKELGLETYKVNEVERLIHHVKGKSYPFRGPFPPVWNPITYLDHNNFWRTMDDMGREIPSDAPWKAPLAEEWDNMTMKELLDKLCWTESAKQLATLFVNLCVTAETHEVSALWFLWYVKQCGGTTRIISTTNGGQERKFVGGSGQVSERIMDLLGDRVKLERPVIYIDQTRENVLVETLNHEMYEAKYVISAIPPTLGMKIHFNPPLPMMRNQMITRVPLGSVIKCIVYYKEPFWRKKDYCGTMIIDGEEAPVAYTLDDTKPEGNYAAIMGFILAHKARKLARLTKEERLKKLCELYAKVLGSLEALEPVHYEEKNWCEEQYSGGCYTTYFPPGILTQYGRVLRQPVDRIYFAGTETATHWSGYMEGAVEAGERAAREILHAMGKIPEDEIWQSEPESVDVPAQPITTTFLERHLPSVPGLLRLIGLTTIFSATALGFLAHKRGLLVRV
Procedure: MAO-A (Sigma M7316) and MAO-B (Sigma M7441) inhibition assays were conducted in 96-well micro-plates according to the method described by Zhou et al. [Analytical Biochemistry 253, 169-174, 1997]. […] Reactions were initiated by the addition of a pre-mixed solution of tyramine, horseradish peroxidase and Amplex Red, and were allowed to proceed at 37° C. for 30 min. Enzyme activities were determined by measuring absorbance at 570 nm (SpectralMax Plate reader), absorbance of oxidized Amplex Red generated by this horseradish peroxidase-coupled reaction. Nonspecifically formed products were determined in the presence of 2 and 10 µM clorgyline and deprenyl for MAO-A and MAO-B, respectively. IC50 values were determined by fitting concentration-inhibition data to sigmoidal dose-response curves with two-floating parameters: IC50 and Hill coefficient.

hMAO-A = biological target: T3, hMAO-A (Homo sapiens, UniProt P21397); experiment: MAO-A inhibition assay; settings: up to 10 μM; No = no inhibition; printed in the IC50 hMAO-A column
T3 construct: purchased Sigma M7316
T3 sequence (P21397 1-527): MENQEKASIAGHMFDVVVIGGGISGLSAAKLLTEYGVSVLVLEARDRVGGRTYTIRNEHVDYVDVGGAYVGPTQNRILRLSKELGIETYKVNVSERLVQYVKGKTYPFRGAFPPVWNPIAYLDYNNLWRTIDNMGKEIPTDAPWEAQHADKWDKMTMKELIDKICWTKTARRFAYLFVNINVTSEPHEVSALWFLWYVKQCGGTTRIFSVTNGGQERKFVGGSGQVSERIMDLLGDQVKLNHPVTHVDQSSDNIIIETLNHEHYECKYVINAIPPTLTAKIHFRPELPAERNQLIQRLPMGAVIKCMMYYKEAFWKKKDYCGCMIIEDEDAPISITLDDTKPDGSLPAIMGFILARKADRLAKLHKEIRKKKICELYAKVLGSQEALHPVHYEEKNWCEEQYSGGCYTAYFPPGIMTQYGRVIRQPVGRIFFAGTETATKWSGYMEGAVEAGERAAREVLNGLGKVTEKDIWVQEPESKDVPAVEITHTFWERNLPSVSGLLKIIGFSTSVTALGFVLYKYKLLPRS
Summary of the method: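 Human MAO-A (0.6 U/ml) or MAO-B (2.5 U/ml) in 0.1 M potassium phosphate pH 7.5 with 0.5 mM tyramine, 0.12 mM Amplex Red and HRP; compounds at 0.1 nM-10 μM, 30 min at 37 °C, absorbance at 570 nm. Background set with clorgyline (MAO-A) or deprenyl (MAO-B); IC50 from sigmoidal fits.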

Molecule: 3-(4-hydroxyphenyl)-7-[(6-pyrazolyl(3-pyridyl))methoxy]chromen-4-one [PT-52]
IC50 [1]: 10 nM
hMAO-A inhibition up to 10 μM (hMAO-A): No

Molecule: 7-{2-[4-(3-chlorophenyl)piperazinyl]ethoxy}-3-(4-hydroxyphenyl)chromen-4-one [PT-123]
IC50 [1]: 11 nM
hMAO-A inhibition up to 10 μM (hMAO-A): No

Molecule: O=c1c(-c2ccc(O)cc2)coc2cc(OCCc3n[nH]cc3-c3ccc(Cl)cc3)ccc12 [PT-51, 7-{2-[4-(4-chlorophenyl)pyrazolyl]ethoxy}-3-(4-hydroxyphenyl)chromen-4-one]
IC50 [1]: 110 nM

Molecule: O=c1c(-c2ccc(O)cc2)coc2cc(OCCc3cccc(C(F)(F)F)c3)ccc12 [PT-59, 3-(4-hydroxyphenyl)-7-{[3-(trifluoromethyl)phenyl]ethoxy}chromen-4-one]
IC50 [1]: 670 nM
hMAO-B inhibition at 10 μM (hMAO-B): 24%
hMAO-A inhibition up to 10 μM (hMAO-A): No

Molecule: O=c1c(-c2cn[nH]c2)coc2cc(OCc3noc(-c4cc(F)cc(C(F)(F)F)c4)n3)ccc12 [PT-75, 7-({5-[3-fluoro-5-(trifluoromethyl)phenyl](1,2,4-oxadiazol-3-yl)}methoxy)-3-(5-hydropyrazol-4-yl)chromen-4-one]
hALDH2 inhibition at 1 μM [1]: 14%
hMAO-B inhibition at 10 μM (hMAO-B): No
hMAO-A inhibition up to 10 μM (hMAO-A): No

Molecule: O=c1c(-c2ccc(O)cc2)coc2cc(OCCc3nnc(-c4ccc(F)cc4)o3)ccc12 [PT-112, 7-{[5-(4-fluorophenyl)(1,3,4-oxadiazol-2-yl)]echoxy}-3-(4-hydroxyphenyl)chromen-4-one]
IC50 [1]: 5 nM
hMAO-B inhibition at 10 μM (hMAO-B): No
hMAO-A inhibition up to 10 μM (hMAO-A): No

Molecule: COc1ccc2c(COc3ccc4c(=O)c(-c5ccc(O)cc5)coc4c3)cc(=O)oc2c1 [PT-119, 4-{[3-(4-hydroxyphenyl)-4-oxochromen-7-yloxy]methyl}-7-methoxychromen-2-one]
hMAO-B inhibition at 10 μM (hMAO-B): No
hMAO-A inhibition up to 10 μM (hMAO-A): No

Molecule: Nc1cccc(-c2nnc(COc3ccc4c(=O)c(-c5ccc(O)cc5)coc4c3)o2)c1 [PT-121, 7-{[5-(3-aminophenyl)(1,3,4-oxadiazol-2-yl)]methoxy}-3-(4-hydroxyphenyl)chromen-4-one]
hMAO-B inhibition at 10 μM (hMAO-B): No
hMAO-A inhibition up to 10 μM (hMAO-A): No

Molecule: CCOC(=O)c1cnn(CCOc2ccc3c(=O)c(-c4ccc(O)cc4)coc3c2)c1 [PT-122, ethyl 1-{2-[3-(4-hydroxyphenyl)-4-oxochromen-7-yloxy]ethyl}pyrazole-4-carboxylate]
hMAO-B inhibition at 10 μM (hMAO-B): No
hMAO-A inhibition up to 10 μM (hMAO-A): No

Molecule: ethyl 3-[7-({3-[3-fluoro-5-(trifluoromethyl)phenyl](1,2,4-oxadiazol-5-yl)}ethoxy)-4-oxochromen-3-yl]benzoate [PT-76]
IC50 [1]: 63 nM
hMAO-B inhibition at 10 μM (hMAO-B): 21%
hMAO-A inhibition up to 10 μM (hMAO-A): No

Results, then the molecule that gave them:

IC50 [1]: 17 nM and 15 nM
inhibition at 10 µM (hMAO-B): 30%
hMAO-A inhibition up to 10 μM (hMAO-A): No
Molecule: CC(Oc1ccc2c(=O)c(-c3ccc(O)cc3)coc2c1)c1nnc(-c2cccnc2)o1 (stereo not shown)

IC50 [1]: 48 nM
inhibition at 10 µM (hMAO-B): 18%
hMAO-A inhibition up to 10 μM (hMAO-A): No
Molecule: CC(Oc1ccc2c(=O)c(-c3ccc(O)cc3)coc2c1)c1noc(-c2cc(F)cc(C(F)(F)F)c2)n1 (stereo not shown)

IC50 [1]: 18 nM
hMAO-B inhibition at 10 μM (hMAO-B): 21%
hMAO-A inhibition up to 10 μM (hMAO-A): No
Molecule: 3-(4-hydroxyphenyl)-7-(2-{4-[3-(trifluoromethyl)phenyl]piperazinyl}ethoxy)chromen-4-one [PT-124]

IC50 [1]: 98 nM
hMAO-B inhibition at 10 μM (hMAO-B): No
hMAO-A inhibition up to 10 μM (hMAO-A): No
Molecule: 3-(4-hydroxyphenyl)-7-[(5-(4-pyridyl)(1,2,4-oxadiazol-3-yl))ethoxy]chromen-4-one [PT-117]

hALDH2 inhibition at 1 μM [1]: 25%
Molecule: N#Cc1cc(-c2coc3cc(OCc4noc(-c5cc(F)cc(C(F)(F)F)c5)n4)ccc3c2=O)ccc1F [PT-9, 2-fluoro-5-[7-({5-[5-fluoro-3-(trifluoromethyl)phenyl](1,2,4-oxadiazol-3-yl)}methoxy)-4-oxochromen-3-yl]benzenecarbonitrile]

IC50 [1]: 20 nM
hMAO-B inhibition up to 10 μM (hMAO-B; up to 10 μM): No
hMAO-A inhibition up to 10 μM (hMAO-A): No
Molecule: CC(C)OC(=O)c1cccc(COc2ccc3c(=O)c(-c4ccc(O)cc4)coc3c2)c1 [PT-35, methylethyl 3-{[3-(4-hydroxyphenyl)-4-oxochromen-7-yloxy]methyl}benzoate]

IC50 [1]: 110 nM
Molecule: O=c1c(-c2ccc(O)cc2)coc2cc(OCCCc3n[nH]cc3-c3ccc(Cl)cc3)ccc12 [PT-106, 7-{3-[4-(4-chlorophenyl)pyrazolyl]propoxy}-3-(4-hydroxyphenyl)chromen-4-one]
